AC50 data for eleven molecules are collected here from ChEMBL document CHEMBL5291721, “A preclinical secondary pharmacology resource illuminates target-adverse drug reaction associations of marketed drugs” (Nat Commun, 2023).

Assay [1] has as its target T1, Neuropeptide Y receptor type 1 (Homo sapiens, UniProt P25929).
T1 sequence (P25929 whole entry): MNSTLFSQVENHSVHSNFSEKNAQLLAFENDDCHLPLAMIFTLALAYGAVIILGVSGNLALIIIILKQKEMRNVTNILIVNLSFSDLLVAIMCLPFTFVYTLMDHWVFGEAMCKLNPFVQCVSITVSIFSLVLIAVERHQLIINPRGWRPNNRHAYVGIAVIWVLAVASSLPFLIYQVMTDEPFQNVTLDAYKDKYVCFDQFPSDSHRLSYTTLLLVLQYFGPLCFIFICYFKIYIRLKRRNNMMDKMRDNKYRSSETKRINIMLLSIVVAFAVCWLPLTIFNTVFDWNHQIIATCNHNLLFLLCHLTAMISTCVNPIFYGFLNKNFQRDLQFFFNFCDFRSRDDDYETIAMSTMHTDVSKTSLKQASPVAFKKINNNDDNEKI

Assay [2] deals with Voltage-gated inwardly rectifying potassium channel KCNH2 (Homo sapiens, UniProt Q12809). Type of assay: functional. Particulars: read-out: AC50.
Assay [3] addresses T2, Alpha-1A adrenergic receptor (Homo sapiens, UniProt P35348).
T2 sequence (P35348 whole entry): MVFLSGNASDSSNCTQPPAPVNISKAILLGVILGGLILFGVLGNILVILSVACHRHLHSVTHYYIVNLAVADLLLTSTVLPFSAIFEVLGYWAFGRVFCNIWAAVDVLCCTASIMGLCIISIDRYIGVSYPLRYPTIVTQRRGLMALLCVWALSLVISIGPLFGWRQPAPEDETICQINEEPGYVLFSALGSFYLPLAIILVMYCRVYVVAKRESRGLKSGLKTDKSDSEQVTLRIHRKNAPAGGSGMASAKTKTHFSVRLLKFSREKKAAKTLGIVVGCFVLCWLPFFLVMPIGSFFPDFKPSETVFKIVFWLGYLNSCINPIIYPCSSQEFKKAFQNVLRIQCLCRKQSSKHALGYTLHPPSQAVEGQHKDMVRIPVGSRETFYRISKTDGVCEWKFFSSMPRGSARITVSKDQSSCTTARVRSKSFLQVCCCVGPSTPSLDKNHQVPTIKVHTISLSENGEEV
In kind it is functional, cell-based.

The target of assay [4] is Gamma-aminobutyric acid receptor subunit alpha-1 (Rattus norvegicus, UniProt P62813).
Assay [5] addresses T3, Alpha-2B adrenergic receptor (Homo sapiens, UniProt P18089).
T3 sequence (P18089 whole entry): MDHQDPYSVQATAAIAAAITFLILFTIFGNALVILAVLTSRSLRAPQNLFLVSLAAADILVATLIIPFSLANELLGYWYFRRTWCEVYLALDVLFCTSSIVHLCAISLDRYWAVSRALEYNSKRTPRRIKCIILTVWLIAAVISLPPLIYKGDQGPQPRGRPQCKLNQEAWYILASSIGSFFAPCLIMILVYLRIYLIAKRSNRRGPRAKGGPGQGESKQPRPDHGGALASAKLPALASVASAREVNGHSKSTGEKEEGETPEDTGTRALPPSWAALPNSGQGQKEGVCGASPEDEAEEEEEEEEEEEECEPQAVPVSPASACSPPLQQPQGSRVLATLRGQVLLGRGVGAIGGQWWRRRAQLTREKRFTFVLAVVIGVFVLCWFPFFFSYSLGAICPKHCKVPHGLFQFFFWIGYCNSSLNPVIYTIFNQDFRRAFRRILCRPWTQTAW

For assay [6], the target named is T4, Muscarinic acetylcholine receptor M1 (Homo sapiens, UniProt P11229).
T4 sequence (P11229 whole entry): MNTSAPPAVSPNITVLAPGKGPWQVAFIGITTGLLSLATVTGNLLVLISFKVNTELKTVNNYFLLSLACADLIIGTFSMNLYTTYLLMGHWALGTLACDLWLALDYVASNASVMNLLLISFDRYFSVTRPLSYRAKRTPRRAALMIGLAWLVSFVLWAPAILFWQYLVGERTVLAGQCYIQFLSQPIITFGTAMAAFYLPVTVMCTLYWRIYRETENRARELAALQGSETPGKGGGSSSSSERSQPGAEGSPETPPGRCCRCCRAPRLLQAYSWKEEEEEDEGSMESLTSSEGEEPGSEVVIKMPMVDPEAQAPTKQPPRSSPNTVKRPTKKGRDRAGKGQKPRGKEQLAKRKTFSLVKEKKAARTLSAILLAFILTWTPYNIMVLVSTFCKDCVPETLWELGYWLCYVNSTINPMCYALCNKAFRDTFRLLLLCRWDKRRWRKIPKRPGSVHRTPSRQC
In kind it is functional.

Assay [7] has as its target Glutamate receptor ionotropic, NMDA 1 (Rattus norvegicus, UniProt P35439).
Assay [8] concerns the target Melanocortin receptor 3 (Homo sapiens, UniProt P41968).
Assay [9] has as its target Cannabinoid receptor 1 (Homo sapiens, UniProt P21554). Type of assay: functional, cell-based.
Assay [10] deals with Beta-2 adrenergic receptor (Homo sapiens, UniProt P07550).
In assay [11] the target is T5, 5-hydroxytryptamine receptor 1A (Homo sapiens, UniProt P08908).
T5 sequence (P08908 whole entry): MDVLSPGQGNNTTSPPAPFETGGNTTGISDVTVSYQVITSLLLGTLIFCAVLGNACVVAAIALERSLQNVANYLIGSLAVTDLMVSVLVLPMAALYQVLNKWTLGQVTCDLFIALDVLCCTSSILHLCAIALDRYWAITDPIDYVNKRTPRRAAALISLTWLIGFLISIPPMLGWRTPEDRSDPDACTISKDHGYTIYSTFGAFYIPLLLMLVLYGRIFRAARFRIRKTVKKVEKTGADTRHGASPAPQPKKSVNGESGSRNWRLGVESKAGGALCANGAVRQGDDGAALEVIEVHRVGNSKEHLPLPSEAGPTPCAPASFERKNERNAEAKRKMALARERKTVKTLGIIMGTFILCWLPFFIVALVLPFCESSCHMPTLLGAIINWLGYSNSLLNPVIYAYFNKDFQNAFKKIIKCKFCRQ
In kind it is functional, cell-based.

Assay [12] addresses Neuronal acetylcholine receptor subunit alpha-4 (Homo sapiens, UniProt P43681).

SMILES strings stand for the structures.
Further: assay procedure not described here.

Chain of Gamma-aminobutyric acid receptor subunit alpha-1 (P62813 whole entry): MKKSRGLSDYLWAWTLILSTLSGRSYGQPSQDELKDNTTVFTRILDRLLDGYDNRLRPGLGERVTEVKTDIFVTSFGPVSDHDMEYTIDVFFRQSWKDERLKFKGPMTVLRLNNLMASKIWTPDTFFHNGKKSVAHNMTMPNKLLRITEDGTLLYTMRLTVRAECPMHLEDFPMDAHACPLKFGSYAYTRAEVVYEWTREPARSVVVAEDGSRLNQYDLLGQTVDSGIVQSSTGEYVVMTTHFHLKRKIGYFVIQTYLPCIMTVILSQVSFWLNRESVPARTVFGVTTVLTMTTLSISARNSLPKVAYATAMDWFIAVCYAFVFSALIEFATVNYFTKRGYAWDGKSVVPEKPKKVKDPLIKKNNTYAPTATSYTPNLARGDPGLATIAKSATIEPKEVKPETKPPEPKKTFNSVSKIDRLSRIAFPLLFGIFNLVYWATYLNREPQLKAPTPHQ
Chain of Melanocortin receptor 3 (P41968 whole entry): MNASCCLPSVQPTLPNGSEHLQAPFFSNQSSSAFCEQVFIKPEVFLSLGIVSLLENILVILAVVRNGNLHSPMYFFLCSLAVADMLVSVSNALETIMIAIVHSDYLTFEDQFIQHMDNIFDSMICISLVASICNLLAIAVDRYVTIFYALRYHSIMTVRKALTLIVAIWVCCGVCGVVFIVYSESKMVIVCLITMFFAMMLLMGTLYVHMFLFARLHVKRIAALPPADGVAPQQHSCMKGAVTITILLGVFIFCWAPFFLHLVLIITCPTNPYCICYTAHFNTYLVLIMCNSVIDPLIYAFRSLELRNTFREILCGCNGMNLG
Chain of Beta-2 adrenergic receptor (P07550 whole entry): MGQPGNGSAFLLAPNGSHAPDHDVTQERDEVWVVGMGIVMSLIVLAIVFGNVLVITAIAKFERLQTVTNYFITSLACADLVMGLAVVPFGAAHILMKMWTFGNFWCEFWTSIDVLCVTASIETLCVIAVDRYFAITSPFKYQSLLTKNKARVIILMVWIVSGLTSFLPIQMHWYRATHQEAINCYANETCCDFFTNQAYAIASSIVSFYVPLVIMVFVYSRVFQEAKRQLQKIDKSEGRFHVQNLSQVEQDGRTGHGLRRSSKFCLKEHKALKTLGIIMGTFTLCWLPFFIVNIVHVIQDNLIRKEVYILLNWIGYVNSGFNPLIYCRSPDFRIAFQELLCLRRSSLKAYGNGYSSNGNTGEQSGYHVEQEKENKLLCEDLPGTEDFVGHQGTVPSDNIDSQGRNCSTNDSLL
Chain of Voltage-gated inwardly rectifying potassium channel KCNH2 (Q12809 whole entry): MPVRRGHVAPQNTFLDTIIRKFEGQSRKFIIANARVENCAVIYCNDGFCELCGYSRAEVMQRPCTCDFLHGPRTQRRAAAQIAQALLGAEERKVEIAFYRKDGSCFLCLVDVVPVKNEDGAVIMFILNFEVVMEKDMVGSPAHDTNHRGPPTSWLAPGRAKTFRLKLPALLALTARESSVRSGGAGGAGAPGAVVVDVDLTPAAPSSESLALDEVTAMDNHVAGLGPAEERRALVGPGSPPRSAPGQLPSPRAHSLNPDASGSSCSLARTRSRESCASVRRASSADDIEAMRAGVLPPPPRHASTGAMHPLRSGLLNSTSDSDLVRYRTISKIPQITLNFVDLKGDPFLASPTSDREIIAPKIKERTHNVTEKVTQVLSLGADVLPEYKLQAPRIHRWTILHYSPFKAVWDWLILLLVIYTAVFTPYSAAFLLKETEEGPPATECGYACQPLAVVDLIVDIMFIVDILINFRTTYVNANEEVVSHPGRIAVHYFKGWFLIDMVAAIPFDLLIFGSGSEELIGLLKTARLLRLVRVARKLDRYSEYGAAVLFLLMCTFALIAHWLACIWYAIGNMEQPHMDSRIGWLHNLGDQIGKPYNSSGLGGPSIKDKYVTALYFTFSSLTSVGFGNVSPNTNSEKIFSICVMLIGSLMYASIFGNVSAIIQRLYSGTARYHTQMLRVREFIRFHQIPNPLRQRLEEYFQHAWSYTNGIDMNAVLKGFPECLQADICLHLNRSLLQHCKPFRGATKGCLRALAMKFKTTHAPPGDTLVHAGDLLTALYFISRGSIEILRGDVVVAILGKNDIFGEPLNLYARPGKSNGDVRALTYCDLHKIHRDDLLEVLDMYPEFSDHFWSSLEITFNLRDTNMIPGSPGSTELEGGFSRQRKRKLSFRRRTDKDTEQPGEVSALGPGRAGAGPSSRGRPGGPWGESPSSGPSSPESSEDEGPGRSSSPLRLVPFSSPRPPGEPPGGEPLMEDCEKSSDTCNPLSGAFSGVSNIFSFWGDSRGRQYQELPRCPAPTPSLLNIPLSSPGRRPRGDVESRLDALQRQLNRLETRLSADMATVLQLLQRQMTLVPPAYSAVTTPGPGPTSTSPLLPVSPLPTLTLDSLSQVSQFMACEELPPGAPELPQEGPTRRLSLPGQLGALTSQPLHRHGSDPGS
Chain of Cannabinoid receptor 1 (P21554 whole entry): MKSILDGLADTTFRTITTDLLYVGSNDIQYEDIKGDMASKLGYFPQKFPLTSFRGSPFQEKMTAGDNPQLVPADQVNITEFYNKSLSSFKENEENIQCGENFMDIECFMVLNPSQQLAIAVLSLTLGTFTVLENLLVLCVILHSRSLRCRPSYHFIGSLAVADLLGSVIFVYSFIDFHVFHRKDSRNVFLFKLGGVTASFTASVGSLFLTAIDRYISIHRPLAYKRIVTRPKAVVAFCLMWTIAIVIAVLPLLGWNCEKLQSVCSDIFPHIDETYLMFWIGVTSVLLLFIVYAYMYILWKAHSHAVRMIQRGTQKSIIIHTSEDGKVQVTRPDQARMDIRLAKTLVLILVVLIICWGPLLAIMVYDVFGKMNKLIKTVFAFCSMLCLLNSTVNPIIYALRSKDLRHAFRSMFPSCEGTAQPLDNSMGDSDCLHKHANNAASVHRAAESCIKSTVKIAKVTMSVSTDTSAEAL
Chain of Neuronal acetylcholine receptor subunit alpha-4 (P43681 whole entry): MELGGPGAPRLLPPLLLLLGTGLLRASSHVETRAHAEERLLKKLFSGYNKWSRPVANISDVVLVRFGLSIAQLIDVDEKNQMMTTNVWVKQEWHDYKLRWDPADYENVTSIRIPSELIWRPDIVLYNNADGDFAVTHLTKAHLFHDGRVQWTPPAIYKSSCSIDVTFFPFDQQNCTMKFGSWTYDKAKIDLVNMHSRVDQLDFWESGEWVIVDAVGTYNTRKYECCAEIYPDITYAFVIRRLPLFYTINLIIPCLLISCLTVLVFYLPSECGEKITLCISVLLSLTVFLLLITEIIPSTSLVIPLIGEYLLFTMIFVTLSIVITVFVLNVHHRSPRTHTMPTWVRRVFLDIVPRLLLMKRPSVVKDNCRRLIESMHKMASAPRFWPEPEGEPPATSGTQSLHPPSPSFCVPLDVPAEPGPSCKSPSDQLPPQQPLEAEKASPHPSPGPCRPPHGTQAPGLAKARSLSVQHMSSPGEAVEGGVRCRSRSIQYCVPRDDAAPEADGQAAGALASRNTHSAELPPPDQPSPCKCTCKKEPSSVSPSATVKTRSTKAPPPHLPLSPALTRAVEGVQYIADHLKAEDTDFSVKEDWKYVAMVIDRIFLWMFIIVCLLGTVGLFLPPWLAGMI

`COc1ccc(-c2ccc3cc(C(=O)O)ccc3c2)cc1C12CC3CC(CC(C3)C1)C2`: the AC50 in [1], in assay [2], in assay [3], in [4], in [5] and in [6] was more than 30 µM in each case. In addition, the AC50 in [7], in [8], in [9], in assay [10], in assay [11] and in assay [12] was more than 30 µM throughout.
Regarding `CCOC(=O)[C@H](CCc1ccccc1)N[C@@H](C)C(=O)N1C(=O)N(C)C[C@H]1C(=O)O`, the AC50 in assay [1], in [2], in assay [3], in assay [4], in assay [5] and in assay [6] was more than 30 µM throughout. Further, the AC50 in assay [7], in [8], in assay [9], in assay [10], in assay [11] and in [12] was more than 30 µM in each case.
On to `CC(=O)O[C@H]1CC[C@@]2(C)C(=CC[C@@H]3[C@@H]2CC[C@]2(C)C(c4cccnc4)=CC[C@@H]32)C1` [ABIRATERONE ACETATE], for which the AC50 in assay [2], in assay [3], in [5], in assay [6], in assay [8] and in assay [9] was more than 30 µM each time. For the same molecule, the AC50 in assay [10] was more than 10 µM; in assay [11], more than 30 µM; in assay [12], more than 30 µM.
For the molecule `O=C(O)CCCCCCNC1c2ccccc2CCc2ccccc21` [AMINEPTINE], the AC50 in [1], in assay [2], in assay [3], in [4], in assay [5] and in [6] was more than 30 µM in each case. The half-maximal activity concentration (AC50) in [7], in assay [8], in assay [9], in assay [10], in assay [11] and in assay [12] was more than 30 µM throughout.
Turning to `COc1ccccc1OCCNCC(O)c1ccc(C)c(S(N)(=O)=O)c1` (centres undefined) [AMOSULALOL], the AC50 in [1] was more than 30 µM; in assay [2] it was 15 µM; in assay [3], 0.32 µM; in [4], more than 30 µM; in assay [5], 6.9 µM; in assay [6], more than 30 µM. The AC50 was more than 30 µM in assay [7]; more than 30 µM in assay [8]; more than 30 µM in [9]; 0.1 µM in assay [10]; more than 30 µM in [11]; more than 30 µM in [12].
As to `COC(=O)C1=C(C)NC(C)=C(C(=O)OC2CCCN(Cc3ccccc3)C2)C1c1cccc([N+](=O)[O-])c1` (centres undefined) [BENIDIPINE], the AC50 was more than 30 µM in assay [1]; 2.01 µM in assay [2]; 4.5 µM in [3]; more than 30 µM in assay [4]; more than 30 µM in assay [5]; 18 µM in assay [6]. The AC50 in [7], in assay [8], in [9], in assay [10], in [11] and in assay [12] was more than 30 µM throughout.
Take `CCC1(CC)C(=O)NCC(C)C1=O` (centres undefined) [METHYPRYLON]: the AC50 in assay [1], in [2], in [3], in [4], in assay [5] and in assay [6] was more than 30 µM each time. In addition, the AC50 in assay [7], in [8], in [9], in assay [11] and in assay [12] was more than 30 µM throughout.
With `Clc1ccc(CCCOCCCN2CCCCC2)cc1` [PITOLISANT], the AC50 in [1] was more than 30 µM; in assay [2], 1.7 µM; in assay [3], more than 30 µM; in assay [4] it was more than 30 µM; in assay [5], more than 30 µM; in assay [6] it was more than 30 µM. The AC50 in assay [7], in assay [8], in [9], in assay [11] and in assay [12] was more than 30 µM throughout.
Consider `CN1C(=O)C(O)N=C(c2ccccc2)c2cc(Cl)ccc21` (centres undefined) [TEMAZEPAM], for which the AC50 in assay [1] was more than 30 µM; in assay [3], more than 30 µM; in assay [4] it was more than 10 µM; in assay [5] it was more than 10 µM; in assay [6], more than 10 µM; in assay [7] it was more than 10 µM. For the same molecule, the AC50 in assay [8] was more than 30 µM; in [9], more than 30 µM; in assay [10], more than 10 µM; in assay [11], more than 10 µM; in assay [12], more than 10 µM.
For `CC(CC(c1ccccc1)c1ccccc1)NC(C)(C)C` (centres undefined) [TERODILINE], the AC50 in assay [1] is more than 30 µM; in [3], more than 30 µM; in [4] it was more than 30 µM; in assay [5], 16 µM; in [6] it was 1.4 µM; in assay [7] it was more than 30 µM. For the same molecule, the AC50 in assay [8], in assay [9], in [10], in assay [11] and in [12] was more than 30 µM in each case.
As to `O=C(NCCNCC(O)COc1ccc(O)cc1)N1CCOCC1` (centres undefined) [XAMOTEROL], the AC50 in assay [1], in assay [2], in [3], in [4], in assay [5] and in [6] was more than 30 µM each time. In addition, the AC50 in assay [7], in assay [8], in assay [9], in assay [11] and in assay [12] was more than 30 µM in each case.
